Species: Rattus norvegicus
Experiment: DrugMatrix - Regimen: Daily Repeat
Type: toxicity, organism-based, Sprague-Dawley
Parameters: regimen Daily Repeat, gender Male, age 6-8 weeks
Settings: in vivo, po, route oral GAVAGE, vehicle 100 % WATER; for ABSOLUTE BASOPHIL / ABSOLUTE EOSINOPHIL / ABSOLUTE LYMPHOCYTE / ABSOLUTE MONOCYTE / ABSOLUTE SEGMENTED NEUTROPHIL / BASOPHIL / EOSINOPHIL / ERYTHROCYTE COUNT / HEMATOCRIT / HEMOGLOBIN / LEUKOCYTE COUNT / LYMPHOCYTE / MEAN CORPUSCULAR HEMOGLOBIN / MEAN CORPUSCULAR HEMOGLOBIN CONCENTRATION / MEAN CORPUSCULAR VOLUME / MONOCYTE / NEUTROPHIL / NUCLEATED RED BLOOD CELLS / PLATELET COUNT: tissue Blood; for ALANINE AMINOTRANSFERASE / ALBUMIN / ALKALINE PHOSPHATASE / ASPARTATE AMINOTRANSFERASE / BLOOD UREA NITROGEN / CARBON DIOXIDE / CHLORIDE / CHOLESTEROL / CREATINE PHOSPHOKINASE / CREATININE / GLUCOSE / LACTATE DEHYDROGENASE / LIPASE / PHOSPHORUS / POTASSIUM / SODIUM / TOTAL BILIRUBIN / TOTAL PROTEIN / URIC ACID: tissue Plasma
[1] = 0 mg/kg, 72 h, dose level Control, time 3 day
[2] = 0 mg/kg, 120 h, dose level Control, time 5 day
[3] = 1 mg/kg, 72 h, dose level Low, time 3 day

Question: What does the source list for CN1C2CCCC1CC(NC(=O)c1nn(C)c3ccccc13)C2 (centres undefined) [GRANISETRON]?
Answer: ABSOLUTE BASOPHIL [1]: 0 CELLS/uL; ABSOLUTE EOSINOPHIL [1]: 0 CELLS/uL; ABSOLUTE LYMPHOCYTE [1]: 8482.5 CELLS/uL; ABSOLUTE MONOCYTE [1]: 63.83 CELLS/uL; ABSOLUTE SEGMENTED NEUTROPHIL [1]: 887 CELLS/uL; BASOPHIL [1]: 0%; EOSINOPHIL [1]: 0%; ERYTHROCYTE COUNT [1]: 5.49 x10E6/uL; HEMATOCRIT [1]: 34.5%; HEMOGLOBIN [1]: 13.33 G/DL; LEUKOCYTE COUNT [1]: 9.43 x10E3/uL; LYMPHOCYTE [1]: 90.17%; MEAN CORPUSCULAR HEMOGLOBIN [1]: 24.3 pg; MEAN CORPUSCULAR HEMOGLOBIN CONCENTRATION [1]: 38.63 G/DL; MEAN CORPUSCULAR VOLUME [1]: 62.88 fL; MONOCYTE [1]: 0.67%; NEUTROPHIL [1]: 9.17%; NUCLEATED RED BLOOD CELLS [1]: 0.67 /100WBC; PLATELET COUNT [1]: 1022.83 x10E3/uL; ALANINE AMINOTRANSFERASE [1]: 50.5 u/L; ALBUMIN [1]: 4.08 G/DL; ALKALINE PHOSPHATASE [1]: 368.33 u/L; ASPARTATE AMINOTRANSFERASE [1]: 87.5 u/L; BLOOD UREA NITROGEN [1]: 12.83 mg/dL; CARBON DIOXIDE [1]: 32.83 mmol/L; CHLORIDE [1]: 99.67 MEQ/L; CHOLESTEROL [1]: 79.67 mg/dL; CREATINE PHOSPHOKINASE [1]: 585 u/L; CREATININE [1]: 0.22 mg/dL; GLUCOSE [1]: 135.67 mg/dL; LACTATE DEHYDROGENASE [1]: 171 u/L; LIPASE [1]: 9.5 u/L; PHOSPHORUS [1]: 11.18 mg/dL; POTASSIUM [1]: 6.25 MEQ/L; SODIUM [1]: 144.87 MEQ/L; TOTAL BILIRUBIN [1]: 0.2 mg/dL; TOTAL PROTEIN [1]: 6.08 G/DL; URIC ACID [1]: 0.65 mg/dL; ABSOLUTE BASOPHIL [2]: 0 CELLS/uL; ABSOLUTE EOSINOPHIL [2]: 14.5 CELLS/uL; ABSOLUTE LYMPHOCYTE [2]: 7596.17 CELLS/uL; ABSOLUTE MONOCYTE [2]: 69.67 CELLS/uL; ABSOLUTE SEGMENTED NEUTROPHIL [2]: 503 CELLS/uL; BASOPHIL [2]: 0%; EOSINOPHIL [2]: 0.17%; ERYTHROCYTE COUNT [2]: 5.49 x10E6/uL; HEMATOCRIT [2]: 34.72%; HEMOGLOBIN [2]: 13.47 G/DL; LEUKOCYTE COUNT [2]: 8.18 x10E3/uL; LYMPHOCYTE [2]: 92.17%; MEAN CORPUSCULAR HEMOGLOBIN [2]: 24.57 pg; MEAN CORPUSCULAR HEMOGLOBIN CONCENTRATION [2]: 38.82 G/DL; MEAN CORPUSCULAR VOLUME [2]: 63.3 fL; MONOCYTE [2]: 1%; NEUTROPHIL [2]: 6.67%; NUCLEATED RED BLOOD CELLS [2]: 0 /100WBC; PLATELET COUNT [2]: 1141 x10E3/uL; ALANINE AMINOTRANSFERASE [2]: 48.33 u/L; ALBUMIN [2]: 4.07 G/DL; ALKALINE PHOSPHATASE [2]: 395.67 u/L; ASPARTATE AMINOTRANSFERASE [2]: 85.67 u/L; BLOOD UREA NITROGEN [2]: 15.83 mg/dL; CARBON DIOXIDE [2]: 31.33 mmol/L; CHLORIDE [2]: 100.83 MEQ/L; CHOLESTEROL [2]: 62.33 mg/dL; CREATINE PHOSPHOKINASE [2]: 248.33 u/L; CREATININE [2]: 0.2 mg/dL; GLUCOSE [2]: 135.67 mg/dL; LACTATE DEHYDROGENASE [2]: 141.33 u/L; LIPASE [2]: 9.5 u/L; PHOSPHORUS [2]: 10.73 mg/dL; POTASSIUM [2]: 6.07 MEQ/L; SODIUM [2]: 145.35 MEQ/L; TOTAL BILIRUBIN [2]: 0.22 mg/dL; TOTAL PROTEIN [2]: 6.12 G/DL; URIC ACID [2]: 0.63 mg/dL; ABSOLUTE BASOPHIL [3]: 0 CELLS/uL; ABSOLUTE EOSINOPHIL [3]: 35.67 CELLS/uL; ABSOLUTE LYMPHOCYTE [3]: 7674 CELLS/uL; ABSOLUTE MONOCYTE [3]: 0 CELLS/uL; ABSOLUTE SEGMENTED NEUTROPHIL [3]: 690.33 CELLS/uL; BASOPHIL [3]: 0%; EOSINOPHIL [3]: 0.33%; ERYTHROCYTE COUNT [3]: 5.55 x10E6/uL; HEMATOCRIT [3]: 33.93%; HEMOGLOBIN [3]: 12.9 G/DL; LEUKOCYTE COUNT [3]: 8.4 x10E3/uL; LYMPHOCYTE [3]: 92%; MEAN CORPUSCULAR HEMOGLOBIN [3]: 23.3 pg; MEAN CORPUSCULAR HEMOGLOBIN CONCENTRATION [3]: 38.03 G/DL; MEAN CORPUSCULAR VOLUME [3]: 61.3 fL; MONOCYTE [3]: 0%; NEUTROPHIL [3]: 7.67%; NUCLEATED RED BLOOD CELLS [3]: 0.33 /100WBC; PLATELET COUNT [3]: 1023.67 x10E3/uL; ALANINE AMINOTRANSFERASE [3]: 49 u/L; ALBUMIN [3]: 4 G/DL; ALKALINE PHOSPHATASE [3]: 371 u/L; ASPARTATE AMINOTRANSFERASE [3]: 82.67 u/L; BLOOD UREA NITROGEN [3]: 11.67 mg/dL; CARBON DIOXIDE [3]: 34 mmol/L; CHLORIDE [3]: 99.33 MEQ/L; CHOLESTEROL [3]: 76.33 mg/dL; CREATINE PHOSPHOKINASE [3]: 380.33 u/L; CREATININE [3]: 0.29 mg/dL; GLUCOSE [3]: 141.67 mg/dL; LACTATE DEHYDROGENASE [3]: 138.33 u/L; LIPASE [3]: 12 u/L; PHOSPHORUS [3]: 10.8 mg/dL; POTASSIUM [3]: 5.77 MEQ/L; SODIUM [3]: 145.17 MEQ/L; TOTAL BILIRUBIN [3]: 0.1 mg/dL; TOTAL PROTEIN [3]: 5.83 G/DL; URIC ACID [3]: 0.57 mg/dL

From ChEMBL document CHEMBL3885881, “DrugMatrix”
